Results: patent publication US20240383901A1, “SUBSTITUTED PYRROLO[2,3-D]PYRIMIDINES, THEIR PREPARATION AND THEIR THERAPEUTIC APPLICATION” (SANOFI, priority 2021, published 2024)

Tests used:
[1] = biological target: T1, full-length LRRK2 G2019S (Homo sapiens, UniProt Q5S007, G2019S); experiment: LRRK2-G2019S kinase activity assay (Lanthascreen TR-FRET); assay type: biochemical; settings: 1.1 mM ATP
T1 construct: DYKDDDDK (FLAG)

[2] = biological target: T2, full-length LRRK2 wild type (Homo sapiens, UniProt Q5S007); experiment: LRRK2 WT assay (Assay A, Lanthascreen TR-FRET, 500 uM ATP); assay type: biochemical; settings: Assay A (values without *)
T2 construct: DYDDDDK tagged full-length LRRK2 wild type is used
T2 sequence (Q5S007 whole entry): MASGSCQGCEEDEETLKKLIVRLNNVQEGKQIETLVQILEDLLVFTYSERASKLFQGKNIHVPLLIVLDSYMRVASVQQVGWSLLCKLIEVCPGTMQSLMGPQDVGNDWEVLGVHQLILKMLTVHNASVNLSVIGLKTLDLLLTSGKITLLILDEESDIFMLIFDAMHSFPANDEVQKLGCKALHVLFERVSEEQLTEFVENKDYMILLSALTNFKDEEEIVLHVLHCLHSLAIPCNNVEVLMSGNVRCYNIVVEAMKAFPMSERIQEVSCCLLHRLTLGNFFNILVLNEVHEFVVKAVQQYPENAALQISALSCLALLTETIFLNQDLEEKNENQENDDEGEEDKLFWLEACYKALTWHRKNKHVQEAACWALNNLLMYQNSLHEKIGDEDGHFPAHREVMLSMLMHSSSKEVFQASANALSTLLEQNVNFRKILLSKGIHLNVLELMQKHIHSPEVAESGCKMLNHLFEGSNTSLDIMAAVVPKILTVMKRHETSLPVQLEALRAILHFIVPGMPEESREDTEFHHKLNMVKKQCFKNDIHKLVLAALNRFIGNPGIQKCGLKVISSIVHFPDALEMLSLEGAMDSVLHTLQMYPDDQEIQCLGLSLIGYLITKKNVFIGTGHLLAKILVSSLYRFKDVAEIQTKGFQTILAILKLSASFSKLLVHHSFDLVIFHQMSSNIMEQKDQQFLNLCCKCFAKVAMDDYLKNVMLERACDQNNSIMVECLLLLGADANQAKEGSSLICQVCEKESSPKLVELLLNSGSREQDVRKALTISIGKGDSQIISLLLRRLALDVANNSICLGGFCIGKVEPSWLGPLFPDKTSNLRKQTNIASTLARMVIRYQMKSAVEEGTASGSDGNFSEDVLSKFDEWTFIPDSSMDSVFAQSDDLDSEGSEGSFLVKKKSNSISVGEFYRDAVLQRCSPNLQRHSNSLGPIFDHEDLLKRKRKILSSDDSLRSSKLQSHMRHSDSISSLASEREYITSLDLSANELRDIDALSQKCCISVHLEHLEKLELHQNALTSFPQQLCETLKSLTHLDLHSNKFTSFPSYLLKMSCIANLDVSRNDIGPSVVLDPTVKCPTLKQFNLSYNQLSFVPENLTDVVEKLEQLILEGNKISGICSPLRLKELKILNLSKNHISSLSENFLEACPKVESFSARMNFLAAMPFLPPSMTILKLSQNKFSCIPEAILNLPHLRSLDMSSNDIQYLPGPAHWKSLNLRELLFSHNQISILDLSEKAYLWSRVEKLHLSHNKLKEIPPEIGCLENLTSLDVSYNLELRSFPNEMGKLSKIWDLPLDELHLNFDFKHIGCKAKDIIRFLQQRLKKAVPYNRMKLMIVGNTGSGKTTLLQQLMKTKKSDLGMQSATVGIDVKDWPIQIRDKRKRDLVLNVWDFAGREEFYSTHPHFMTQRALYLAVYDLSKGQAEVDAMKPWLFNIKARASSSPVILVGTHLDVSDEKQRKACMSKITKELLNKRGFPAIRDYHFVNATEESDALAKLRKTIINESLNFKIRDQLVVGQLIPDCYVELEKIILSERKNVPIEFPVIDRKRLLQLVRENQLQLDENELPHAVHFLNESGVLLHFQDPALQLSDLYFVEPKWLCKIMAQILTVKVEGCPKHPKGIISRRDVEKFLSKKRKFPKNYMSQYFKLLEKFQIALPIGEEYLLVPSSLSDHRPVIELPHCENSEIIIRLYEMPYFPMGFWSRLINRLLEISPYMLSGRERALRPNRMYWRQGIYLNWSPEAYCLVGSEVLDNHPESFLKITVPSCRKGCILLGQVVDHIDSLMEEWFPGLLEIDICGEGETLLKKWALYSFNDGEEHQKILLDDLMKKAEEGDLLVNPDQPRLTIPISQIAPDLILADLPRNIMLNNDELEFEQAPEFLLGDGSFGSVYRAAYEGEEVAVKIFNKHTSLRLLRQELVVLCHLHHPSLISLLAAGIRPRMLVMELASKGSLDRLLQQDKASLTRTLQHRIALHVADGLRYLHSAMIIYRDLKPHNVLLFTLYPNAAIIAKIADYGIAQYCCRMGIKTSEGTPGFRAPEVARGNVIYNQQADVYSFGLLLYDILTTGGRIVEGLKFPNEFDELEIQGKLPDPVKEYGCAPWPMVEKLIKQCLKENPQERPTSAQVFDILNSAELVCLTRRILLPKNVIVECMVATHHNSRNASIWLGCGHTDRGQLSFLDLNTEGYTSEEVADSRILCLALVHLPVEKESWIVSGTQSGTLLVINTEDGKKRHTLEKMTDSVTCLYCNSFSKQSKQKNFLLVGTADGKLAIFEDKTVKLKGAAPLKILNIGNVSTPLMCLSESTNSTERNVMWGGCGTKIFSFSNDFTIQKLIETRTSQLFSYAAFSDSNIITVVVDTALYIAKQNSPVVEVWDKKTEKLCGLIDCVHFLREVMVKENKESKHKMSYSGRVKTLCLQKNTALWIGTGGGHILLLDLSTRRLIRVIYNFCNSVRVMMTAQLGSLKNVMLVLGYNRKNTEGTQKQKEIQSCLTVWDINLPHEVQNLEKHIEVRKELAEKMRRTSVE

T1 sequence (Q5S007 whole entry G2019S): as the sequence (Q5S007 whole entry) above, with G2019S counted along it

| SMILES | IC50 [1] | IC50 [2] |
| --- | --- | --- |
| C[C@@H]1OC[C@H]1Oc1nn(C)cc1Nc1ncc2cc(C#N)n([C@H]3COC[C@@H]3C)c2n1 (single isomer, unassigned) [Example 6] | 4 nM | 5 nM |
| C[C@H]1COC[C@@H]1n1c(C#N)cc2cnc(Nc3cn(C)nc3OCC(C)(C)O)nc21 [Example 32, 2-((3-(2-Hydroxy-2-methylpropoxy)-1-methyl-1H-pyrazol-4-yl)amino)-7-((3R,4R)-4-methyltetrahydrofuran-3-yl)-7H-pyrrolo[2,3-d]pyrimidine-6-carbonitrile] | 7 nM | 7 nM |
| CC(Oc1nn(C2COC2)cc1Nc1ncc2cc(C#N)n([C@H]3COC[C@@H]3C)c2n1)C(F)(F)F (single isomer, unassigned) [Example 10] | 1 nM | 1 nM |
| [2H]C([2H])([2H])n1cc(Nc2ncc3cc(C#N)n(C4CCOCC4)c3n2)c(OC2COC2(C)C)n1 (single isomer, unassigned) [Example 120, 2-((3-((2,2-dimethyloxetan-3-yl)oxy)-1-(methyl-d3)-1 H-pyrazol-4-yl)amino)-7-(tetrahydro-2H-pyran-4-yl)-7H-pyrrolo[2,3-d]pyrimidine-6-carbonitrile] | 179 nM | 173 nM |
| COCCn1cc(Nc2ncc3cc(C#N)n([C@H]4COC[C@@H]4C)c3n2)c(OC2CC2)n1 [Example 113, 2-((3-Cyclopropoxy-1-(2-methoxyethyl)-1 H-pyrazol-4-yl)amino)-7-((3R,4R)-4-methyltetrahydrofuran-3-yl)-7H-pyrrolo[2,3-d]pyrimidine-6-carbonitrile] | 27 nM | 27 nM |
| COCC(C)n1cc(Nc2ncc3cc(C#N)n(C4CCOCC4)c3n2)c(OC2CC2)n1 (single isomer, unassigned) [Example 126, 2-((3-cyclopropoxy-1-(1-methoxypropan-2-yl)-1 H-pyrazol-4-yl)amino)-7-(tetrahydro-2H-pyran-4-yl)-7H-pyrrolo[2,3-d]pyrimidine-6-carbonitrile] | 83 nM | 77 nM |
| [2H]C([2H])([2H])n1cc(Nc2ncc3cc(C#N)n([C@@H](C)COC)c3n2)c(OC2COC2(C)C)n1 (single isomer, unassigned) [Example 99] | 36 nM | 34 nM |
| C[C@@H]1COCC[C@H]1n1c(C#N)cc2cnc(Nc3cn(CCO)nc3OC3COC3)nc21 (single isomer, unassigned) [Example 161, 2-((1-(2-hydroxyethyl)-3-(oxetan-3-yloxy)-1 H-pyrazol-4-yl)amino)-7-(trans-3-methyltetrahydro-2H-pyran-4-yl)-7H-pyrrolo[2,3-d]pyrimidine-6-carbonitrile] | 14 nM | 7 nM |
| CC(C)Oc1nn(C)cc1Nc1ncc2cc(C#N)n([C@@H]3CO[C@H]3C)c2n1 (single isomer, unassigned) [Example 79, 7-[(trans)-2-methyloxetan-3-yl]-2-[(1-methyl-3-propan-2-yloxypyrazol-4-yl)amino]pyrrolo[2,3-d]pyrimidine-6-carbonitrile] | 6 nM | 9 nM |
| C[C@H]1COC[C@H]1n1c(C#N)cc2cnc(Nc3cn(C)nc3OC3COC3)nc21 (single isomer, unassigned) [Example 46, 2-((1-methyl-3-(oxetan-3-yloxy)-1 H-pyrazol-4-yl)amino)-7-((cis)-4-methyltetrahydrofuran-3-yl)-7H-pyrrolo[2,3-d]pyrimidine-6-carbonitrile] | 413 nM | 489 nM |
| [2H]C([2H])([2H])n1cc(Nc2ncc3cc(C#N)n(C4CCOCC4)c3n2)c(OC2COC2(C)C)n1 (single isomer, unassigned) [Example 121, 2-((3-((2,2-dimethyloxetan-3-yl)oxy)-1-(methyl-d3)-1 H-pyrazol-4-yl)amino)-7-(tetrahydro-2H-pyran-4-yl)-7H-pyrrolo[2,3-d]pyrimidine-6-carbonitrile] | 181 nM | 133 nM |
| [2H]C([2H])([2H])n1cc(Nc2ncc3cc(C#N)n([C@H]4COC[C@@H]4C)c3n2)c(O[C@@H]2COC[C@H]2O)n1 (single isomer, unassigned) [Example 114] | 28 nM | 20 nM |
